A short description of data set [1]: Metabolic stability in human liver microsomes after 1 hr. The data set is classed as ADME, Microsome. The conditions noted are these: read-out: Stability. (Microsomes from liver hold many membrane-bound enzymes, among them those of drug oxidation.)
Data set [2] in a line: […] bioavailability in ip dosed rat. The data set is classed as ADME, organism-based. The conditions noted are these: in vivo, intraperitoneal.
Data set [3] can be described thus: […] bioavailability in sc dosed rat. The data set is classed as ADME, organism-based. The conditions noted are these: in vivo, subcutaneous.
Data set [4] is described as follows: Aqueous solubility at pH 7. In kind it is physicochemical.
Data set [5] can be described thus: Aqueous solubility at pH 2. The data set is classed as physicochemical.

Each structure is given as a SMILES string.

Usually bioavailability stands for the share of a dose that reaches the circulation, judged against a reference dose that is usually intravenous. Lower therefore signals little systemic uptake. By solubility is commonly meant the concentration that dissolves in the medium under given conditions. Higher therefore signals a readily soluble substance. Regarding `C[N+](C)(Cc1ccc(NC(=O)c2ccc(Cl)c(Cl)c2)cc1)C1CCOCC1` [JNJ-17166864 CATION], the remaining at 1 h in data set [1] amounted to 100%. Also, the bioavailability is 74% in data set [2] and 100% in data set [3]. The solubility in data set [4] and in data set [5] was more than 7000 µg/mL throughout.

These data come from ChEMBL document CHEMBL1140669, “Potent and selective CC-chemokine receptor-2 (CCR2) antagonists as a potential treatment for asthma” (Bioorg Med Chem Lett, 2007).
